In US6703205B2, “Apparatus and methods for correcting for variable velocity in microfluidic systems” (Caliper Technologies Corp., priority 1997, dated 2004) one finds kcat and Vmax data, which are given here for 2 molecules.

The target of assay [1] is LAR (Homo sapiens, UniProt P10586). Description: Cuvette / spectrophotometer LAR phosphatase assay with dFMUP. It is filed as biochemical. As to conditions: same running buffer. The procedure:
A least squares fit of the three straight lines: no inhibitor, 35 μM and 69 μM peptide, was performed with the constraint that they meet at a common intercept on the y axis, 1/Vmax FIG. 15. […] The kcat is 4.74 μmol/min nmol LAR. The parallel analysis performed on the spectrophotometer in the same running buffer yielded a kcat of 6 μmol/min nmol LAR. […] The same analysis performed in a cuvette experiment with 1 mg/ml BSA in the running buffer gave 167 μM peptide.
In addition to the above kinetic studies, rate as a function of substrate concentration data was collected on three separate chips in order to consider interchip reproducibility for Km analyses. The combined data were used to prepare a double reciprocal plot. […] This is in excellent agreement with cuvette experiments performed on the spectrophotometer where dFMU was detected at 360 nm in a temperature controlled cuvette at 25_C.

The target of assay [2] is HCV protease (Hepatitis C virus genotype 1a, UniProt P27958). Description: On-chip continuous flow HCV protease assay with FRET depsipeptide substrate. It is filed as biochemical. Particulars: 25 mM TRIS/HCL, pH 8.5, 0.1% Triton X-100, 10 mM DTT, 1M NDSB-195. The source says:
HCV protease was used in a similar fluorogenic assay to LAR phosphatase; however, the peptide substrate incorporates a fluorescence resonance energy transfer (FRET) label (FIG. 18). […] The product fluorescence is proportional to the amount of cleaved substrate. The height of the product signal is proportional to the rate of enzyme turnover for that substrate concentration. The rate of fluorescence generation can be assessed as the fluorescence signal per mixing time of substrate and enzyme in the reaction channel. That mixing time is determined by the mean residence time of the fluorescent product in the reaction channel as it is electrokinetically pumped from the source of the mixing to the detector. Km was determined from the Michaelis Menton equation.
Due to the chemistry of this FRET quenching reaction, several considerations for accurate measurement of Km on the Labchip™ exist. […]
The chip was operational in that fluid was flowing for more than 12 hours of continuous electrokinetic pumping; however, the inhibition response was reproducible for seven hours. The total reagent volume consumed in the experiment can be calculated from the cross sectional area of the capillary and the total current. […] The average percent inhibition response was calculated for the first three inhibited and uninhibited signals at the start of each hour. […]

HCV protease, sequence (P27958 1027-1208): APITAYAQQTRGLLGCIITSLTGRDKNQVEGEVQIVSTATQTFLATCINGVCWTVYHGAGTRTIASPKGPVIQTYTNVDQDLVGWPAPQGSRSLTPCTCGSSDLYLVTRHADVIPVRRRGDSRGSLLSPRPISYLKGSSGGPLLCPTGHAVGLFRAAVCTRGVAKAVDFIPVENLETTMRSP
LAR, sequence (P10586 30-1907, species assumed): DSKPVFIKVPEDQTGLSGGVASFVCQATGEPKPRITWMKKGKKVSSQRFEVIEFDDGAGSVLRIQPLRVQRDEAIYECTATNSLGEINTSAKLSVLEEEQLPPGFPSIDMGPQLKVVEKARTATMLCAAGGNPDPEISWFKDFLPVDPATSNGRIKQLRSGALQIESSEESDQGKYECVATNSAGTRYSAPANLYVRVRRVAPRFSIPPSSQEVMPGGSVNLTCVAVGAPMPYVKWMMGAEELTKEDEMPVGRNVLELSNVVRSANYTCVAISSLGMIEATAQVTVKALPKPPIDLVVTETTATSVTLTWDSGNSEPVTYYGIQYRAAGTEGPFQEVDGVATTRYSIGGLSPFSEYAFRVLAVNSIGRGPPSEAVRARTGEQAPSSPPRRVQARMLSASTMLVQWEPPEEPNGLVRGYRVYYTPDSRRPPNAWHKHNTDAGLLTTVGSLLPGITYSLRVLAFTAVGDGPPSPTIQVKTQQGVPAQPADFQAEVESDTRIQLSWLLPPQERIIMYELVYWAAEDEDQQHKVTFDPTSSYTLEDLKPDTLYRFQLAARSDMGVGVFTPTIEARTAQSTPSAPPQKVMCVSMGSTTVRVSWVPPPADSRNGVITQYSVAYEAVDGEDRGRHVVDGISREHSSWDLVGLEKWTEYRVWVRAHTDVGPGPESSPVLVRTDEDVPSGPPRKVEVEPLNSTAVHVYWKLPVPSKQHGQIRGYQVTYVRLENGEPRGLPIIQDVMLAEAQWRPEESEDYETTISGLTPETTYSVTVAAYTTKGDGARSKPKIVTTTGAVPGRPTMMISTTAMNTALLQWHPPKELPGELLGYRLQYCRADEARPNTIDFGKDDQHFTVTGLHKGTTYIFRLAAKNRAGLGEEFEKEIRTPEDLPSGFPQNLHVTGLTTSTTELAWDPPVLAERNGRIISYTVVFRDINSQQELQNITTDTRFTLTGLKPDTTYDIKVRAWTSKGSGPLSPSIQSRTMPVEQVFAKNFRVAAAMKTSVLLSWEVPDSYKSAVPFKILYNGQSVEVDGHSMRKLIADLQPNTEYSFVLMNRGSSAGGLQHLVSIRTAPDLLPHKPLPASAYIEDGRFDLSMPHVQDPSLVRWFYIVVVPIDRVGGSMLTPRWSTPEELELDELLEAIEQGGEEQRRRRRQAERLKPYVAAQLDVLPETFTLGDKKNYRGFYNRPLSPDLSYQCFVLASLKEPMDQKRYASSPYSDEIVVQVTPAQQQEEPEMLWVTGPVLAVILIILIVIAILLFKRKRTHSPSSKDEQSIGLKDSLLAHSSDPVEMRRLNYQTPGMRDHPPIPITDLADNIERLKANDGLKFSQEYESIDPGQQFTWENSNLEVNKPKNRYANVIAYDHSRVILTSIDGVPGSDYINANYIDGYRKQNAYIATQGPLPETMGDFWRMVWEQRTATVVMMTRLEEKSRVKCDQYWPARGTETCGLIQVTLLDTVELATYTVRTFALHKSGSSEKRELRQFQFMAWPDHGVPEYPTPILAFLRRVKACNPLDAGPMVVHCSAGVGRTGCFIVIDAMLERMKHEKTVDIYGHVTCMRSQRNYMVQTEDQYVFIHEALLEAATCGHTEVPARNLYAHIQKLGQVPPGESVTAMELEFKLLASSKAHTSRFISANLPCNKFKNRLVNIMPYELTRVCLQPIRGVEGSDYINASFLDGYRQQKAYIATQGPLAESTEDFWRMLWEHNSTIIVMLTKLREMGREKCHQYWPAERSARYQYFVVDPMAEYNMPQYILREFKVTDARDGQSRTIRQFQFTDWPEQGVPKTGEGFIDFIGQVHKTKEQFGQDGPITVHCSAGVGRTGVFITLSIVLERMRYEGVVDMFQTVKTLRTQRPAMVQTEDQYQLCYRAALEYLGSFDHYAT

Regarding `Cc1cc(=O)oc2c(F)c(OP(=O)(O)O)c(F)cc12` [dFMUP], the kcat in assay [1] is listed as 6 μmol/min nmolLAR. Consider `C/C=C1\NC(=O)[C@H]2CSSCC/C=C/[C@H](CC(=O)N[C@H](C(C)C)C(=O)N2)OC(=O)[C@H](C(C)C)NC1=O` [Depsipeptide], for which, in assay [2], the Vmax came to 0.086 mM/s and the kcat came to 0.03 s⁻¹.

One may read the Vmax as the top rate of the reaction or transport when substrate is in excess.
